This passage reports EC50 and Emax results from patent publication US9822130B2, “Triazolo-pyrazinyl derivatives useful as soluble guanylate cyclase activators” (Merck Sharp & Dohme Corp., priority 2014, dated 2017).

The target in one test is T1, sGC α1/β1 heterodimer stably expressed in CHO-K1 cell line (CHO-K1/sGC) (Homo sapiens, UniProt Q02108+Q02153).
T1 construct: expressed in transfected cells
T1 sequence (Q02108 1-690): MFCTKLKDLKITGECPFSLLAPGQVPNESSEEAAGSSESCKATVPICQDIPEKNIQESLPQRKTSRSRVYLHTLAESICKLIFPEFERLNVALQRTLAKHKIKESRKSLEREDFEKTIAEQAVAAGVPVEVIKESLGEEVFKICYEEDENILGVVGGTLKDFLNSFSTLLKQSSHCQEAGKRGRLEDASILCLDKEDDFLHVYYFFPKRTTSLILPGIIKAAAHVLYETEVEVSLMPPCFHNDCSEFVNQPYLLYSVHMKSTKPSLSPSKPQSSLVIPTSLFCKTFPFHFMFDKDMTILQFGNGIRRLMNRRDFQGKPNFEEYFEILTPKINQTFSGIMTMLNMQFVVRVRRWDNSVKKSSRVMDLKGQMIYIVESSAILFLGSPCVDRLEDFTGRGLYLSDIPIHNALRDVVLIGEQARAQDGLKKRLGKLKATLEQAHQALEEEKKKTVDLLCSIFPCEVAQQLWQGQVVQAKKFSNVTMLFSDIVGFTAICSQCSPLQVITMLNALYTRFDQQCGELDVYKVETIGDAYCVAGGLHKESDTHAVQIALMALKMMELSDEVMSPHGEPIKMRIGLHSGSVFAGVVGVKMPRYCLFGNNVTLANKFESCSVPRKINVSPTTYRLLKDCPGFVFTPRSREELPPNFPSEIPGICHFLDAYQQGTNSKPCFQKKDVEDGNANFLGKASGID
T1 sequence (Q02153 1-619): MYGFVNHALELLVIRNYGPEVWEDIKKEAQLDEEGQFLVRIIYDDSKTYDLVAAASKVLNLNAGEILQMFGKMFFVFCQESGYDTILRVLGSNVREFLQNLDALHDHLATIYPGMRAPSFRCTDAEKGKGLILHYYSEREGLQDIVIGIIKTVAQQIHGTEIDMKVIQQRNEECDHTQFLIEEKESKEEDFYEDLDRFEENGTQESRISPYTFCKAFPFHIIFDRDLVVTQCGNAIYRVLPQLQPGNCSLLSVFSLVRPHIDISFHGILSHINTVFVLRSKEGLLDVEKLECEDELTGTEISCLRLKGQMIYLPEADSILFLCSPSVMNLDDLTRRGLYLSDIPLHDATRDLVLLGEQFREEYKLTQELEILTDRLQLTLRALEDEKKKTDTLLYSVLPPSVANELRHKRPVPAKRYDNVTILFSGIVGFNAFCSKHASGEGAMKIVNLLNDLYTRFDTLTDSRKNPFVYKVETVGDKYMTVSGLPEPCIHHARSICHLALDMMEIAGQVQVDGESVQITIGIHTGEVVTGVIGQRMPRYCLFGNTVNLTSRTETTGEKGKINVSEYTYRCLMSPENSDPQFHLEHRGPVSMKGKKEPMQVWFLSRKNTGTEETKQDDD
As to the kind of experiment: Cell-based sGC Functional Assay (CASA Assay), cGMP generation. The following applies: CHO-K1/sGC cells, 1 hr at 37° C., cGMP by HTRF, 4P fit; presence or absence of 1 μM DETA-NO not given; read-out: IP (nM) (inflection point). The method, boiled down: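 Readout is HTRF cGMP in lysates, normalised to the maximal response of reference sGC activator Compound A (100%), with a 4P fit giving IP and fold induction. Cells were CHO-K1/sGC (human α1/β1) in EBSS buffer with IBMX, incubated 1 hr at 37° C with compound. Run with and without 1 μM DETA-NO; final DMSO 2.5%.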
(In general: TR-FRET usually uses a lanthanide donor and a delayed reading to cut background.)
Regarding `C[C@@]1(c2ccc(F)cc2)C(=O)Nc2nc(-c3cn4ncnc4c(CCC(F)(F)F)n3)nc(N)c21` [Example 74A, (S)-4-amino-5-(4-fluorophenyl)-5-methyl-2-(8-(3,3,3-trifluoropropyl)-[1,2,4]triazolo[1,5-a]pyrazin-6-yl)-5,7-dihydro-6H-pyrrolo[2,3-d]pyrimidin-6-one], the EC50 came to 55.6 nM.
As to `CC1(c2ccc(Cl)c(F)c2)C(=O)Nc2nc(-c3cn4ncnc4c(CCC(F)(F)F)n3)nc(N)c21` (centres unmarked) [Example 75B, 4-amino-5-(4-chloro-3-fluorophenyl)-5-methyl-2-(8-(3,3,3-trifluoropropyl)-[1,2,4]triazolo[1,5-a]pyrazin-6-yl)-5H-pyrrolo[2,3-d]pyrimidin-6(7H)-one], the EC50 came to 20 nM.
On the same count and under the same terms, the figure for `CC1(c2ccc(Cl)cc2)C(=O)Nc2nc(-c3cn4ncnc4c(CCC(F)(F)F)n3)nc(N)c21` (centres unmarked) [Example 76A, 4-amino-5-(4-chlorophenyl)-5-methyl-2-(8-(3,3,3-trifluoropropyl)-[1,2,4]triazolo[1,5-a]pyrazin-6-yl)-5H-pyrrolo[2,3-d]pyrimidin-6(7H)-one] is 154 nM; for `CC1(c2ccc(C(F)(F)F)cc2)C(=O)Nc2nc(-c3cn4ncnc4c(CCC(F)(F)F)n3)nc(N)c21` (centres unmarked) [Example 77B, 4-amino-5-methyl-5-(4-(trifluoromethyl)phenyl)-2-(8-(3,3,3-trifluoropropyl)-[1,2,4]triazolo[1,5-a]pyrazin-6-yl)-5H-pyrrolo[2,3-d]pyrimidin-6(7H)-one] it is 333 nM; for `CC1(c2ccc(C(F)(F)F)cn2)C(=O)Nc2nc(-c3cn4ncnc4c(CCC(F)(F)F)n3)nc(N)c21` (centres unmarked) [Example 78B, 4-amino-5-methyl-5-(5-(tritluoromethyl)pyridin-2-yl)-2-(8-(3,3,3-trifluoropropyl)-[1,2,4]triazolo[1,5-d]pyrazin-6-yl)-5H-pyrrolo[2,3-d]pyrimidin-6(7H)-one] it is 550 nM.
`CC1(c2ccc(Cl)cn2)C(=O)Nc2nc(-c3cn4ncnc4c(CCC(F)(F)F)n3)nc(N)c21` (centres unmarked) [Example 79A, 4-amino-5-(5-chloropyridin-2-yl)-5-methyl-2-(8-(3,3,3-trifluoropropyl)-[1,2,4]triazolo[1,5-a]pyrazin-6-yl)-5H-pyrrolo[2,3-d]pyrimidin-6(7H)-one]: the EC50 came to 325 nM.
Turning to `Nc1nc(-c2cn3ncnc3c(CCC(F)(F)F)n2)nc2c1C(c1ccc(C(F)(F)F)cn1)(C1CC1)C(=O)N2` (centres unmarked) [Example 80A, 4-amino-5-cyclopropyl-5-(5-(trifluoromethyl)pyridin-2-yl)-2-(8-(3,3,3-trifluoropropyl)-[1,2,4]triazolo[1,5-a]pyrazin-6-yl)-5H-pyrrolo[2,3-d]pyrimidin-6(7H)-one], the EC50 was found to be 2490 nM.
For `CC1(c2ccc(F)cn2)C(=O)Nc2nc(-c3cn4ncnc4c(CCC(F)(F)F)n3)nc(N)c21` (centres unmarked) [Example 81B, 4-amino-5-(5-fluoropyridin-2-yl)-5-methyl-2-(8-(3,3,3-trifluoropropyl)-[1,2,4]triazolo[1,5-a]pyrazin-6-yl)-5H-pyrrolo[2,3-d]pyrimidin-6(7H)-one], the EC50 stood at 698 nM.
As for `Nc1nc(-c2cn3ncnc3c(CCC(F)(F)F)n2)nc2c1C(c1ccc(Cl)cn1)(C1CC1)C(=O)N2` (centres unmarked) [Example 82A, 4-amino-5-(5-chloropyridin-2-yl)-5-cyclopropyl-2-(8-(3,3,3-trifluoropropyl)-[1,2,4]triazolo[1,5-a]pyrazin-6-yl)-5H-pyrrolo[2,3-d]pyrimidin-6(7H)-one], the EC50 stood at 555 nM.
On the same count and under the same terms, next, `Nc1nc(-c2cn3ncnc3c(CCC(F)(F)F)n2)nc2c1C(c1ccc(F)c(F)c1)(C1CC1)C(=O)N2` (centres unmarked) [Example 83A, 4-amino-5-cyclopropyl-5-(3,4-difluorophenyl)-2-(8-(3,3,3-trifluoropropyl)-[1,2,4]triazolo[1,5-a]pyrazin-6-yl)-5H-pyrrolo[2,3-d]pyrimidin-6(7H)-one]: 270 nM.

The test is the same for the next values; noted with them: CHO-K1/sGC cells, 1 hr at 37° C., cGMP by HTRF; presence or absence of 1 μM DETA-NO not given; read-out: % Act. (percent activation relative to maximum cGMP production of Compound A = 100%).
Turning to `Nc1nc(-c2cn3ncnc3c(CCC(F)(F)F)n2)nc2c1C(c1ccc(F)c(F)c1)(C1CC1)C(=O)N2` (centres unmarked) [Example 83A, 4-amino-5-cyclopropyl-5-(3,4-difluorophenyl)-2-(8-(3,3,3-trifluoropropyl)-[1,2,4]triazolo[1,5-a]pyrazin-6-yl)-5H-pyrrolo[2,3-d]pyrimidin-6(7H)-one], the Emax came to 100%.
